Data taken from patent publication EP1081131A1 (priority 1998, dated 1999).

Tests used:
[1] = Acute toxicity on mice (per os); details: mouse, in vivo, white mice, per os in 0.5% solution of starch for 5 days; for LD50 at 5 days: oral; for LD50: po
Protocol: A study of acute toxicity was carried out according to a standard method on white mice. The animals received the preparation per os in a 0.5% solution of starch for 5 days.

[2] = Carrying of cations from one aqueous phase to another through a layer of nonpolar organic solvent (lipophil membrane); assay type: physicochemical
Protocol: Purification of the prepared compounds is controlled by the TLC method. The meanings of Rf of the claimed compounds were determined using "Sorbfil" plates (Silicagel CTX-1A, UV) (Russia) or "Silufol- UV" plates (Czechoslovakia). The composition and structure of the new compounds were confirmed by element analysis (C,H,N,O analyzer of the Karlo Erba firm) and also IR (Specord-UV-.751R) and PMR spectroscopy (Tesla BS-597A, 100 MHz). An UZDN-2T ultrasound disperser at a frequency of 22 kHz was used to carry out the reaction with ultrasound action. The cation-carrying properties of the claimed compounds were studied in accordance with a generally accepted method, which consists of studying the carrying of a cation from one aqueous phase to another aqueous phase through a layer of a nonpolar organic solvent.

M. avium = assay: Antimycobacterial activity in vitro, vertical diffusion on dense nutrient; assay type: cell-based; details: Atypical strain M. avium
M. smegmatis = assay: as above; assay type: cell-based; details: Atypical strain M. smegmatis
H37Rv = assay: as above; assay type: cell-based, mycobacteria; details: Typical strain H37Rv
M. bovis = assay type: cell-based; details: Typical strain M. bovis
M.fortuirum = assay: Antimycobacterial activity in vitro, vertical diffusion on dense nutrient; assay type: cell-based; details: Atypical strain M.fortuirum
S. epidermides = assay: Antibacterial activity in vitro, preparation in a cavity of nutrient agar; assay type: cell-based; details: Table 7
Protocol: (§1) The antibacterial activity of the claimed compounds was studied with the method of seeding solutions of the preparation in a cavity. The test-microbe was put in a Petri dish containing a simple nutrient agar. The preparation in an amount of 0.02 ml in necessary concentrations was put in a cavity located in the middle of the Petri dish. The results were taken after 24-hour incubation in a thermostat at 37°C by determination of the zone of delay of growth of the microorganisms along the edges of the cavity.

E. coli = assay: as above; assay type: cell-based
Protocol: as §1

Lactobacteria = assay: as above; assay type: cell-based; details: Table 7
Protocol: as §1

[3] = tested on: Sensitive to streptomycin, rifamycin and isoniazid; assay: Bacteriostatic activity on patient strains (Table 4); assay type: cell-based, mycobacteria of tuberculosis; details: taken from patients, Central SRI of Tuberculosis RAMS 1997
P. vulgaris = assay: Antibacterial activity in vitro, preparation in a cavity of nutrient agar; assay type: cell-based; details: Table 6
Protocol: as §1

Candida Albicans = assay: as above; assay type: cell-based; details: Table 6
Protocol: as §1

S. aureus = assay: as above; assay type: cell-based; details: Table 6
Protocol: as §1

strain H37Rv = assay: Therapeutic action on infected guinea pigs; assay type: in vivo; details: for Average change in weight of pigs during test / Weight of lungs / Weight of spleen: 21 mg/kg (isoniazid equivalent dose), 5 times a week for 60 days

Compound | Antimycobacterial activity of claimed preparations in tests In vitro (M. avium) [µg/mL] | Antimycobacterial activity of claimed preparations in tests In vitro (H37Rv) [µg/mL] | Antimycobacterial activity of claimed preparations in tests In vitro (M.fortuirum) [µg/mL] | Inhibiting level (S. epidermides) [µg/mL] | Inhibiting level (E. coli; Table 7) [µg/mL] | Inhibiting level (Lactobacteria) [µg/mL] | further results
O=Cc1ccccc1OCCOCCOc1ccccc1C=O | – | – | – | – | – | – | LD50 at 5 days [1]: > 2000 mg/kg
1,5-Bis(2-phenyl hydrazonomethyl phenoxy)-3-oxapentane | – | – | – | – | – | – | Speed of carrying ([2]; Cation of metal Cu): 2.0 mol h^-1 10^-7; Speed of carrying ([2]; Cation of metal Fe): 60.0 mol h^-1 10^-7; Speed of carrying ([2]; Cation of metal K): 34.5 mol h^-1 10^-7; Speed of carrying ([2]; Cation of metal Na): 28.7 mol h^-1 10^-7
O=Cc1ccc(Cl)cc1OCCOc1cc(Cl)ccc1C=O [1,2-Bis(2-formyl-5-chlorphenoxy)-ethane] | 25.0 | 0.4 | 25.0 | – | – | – | Antimycobacterial activity of claimed preparations in tests In vitro (M. smegmatis): 6.3 to 12.5 µg/mL; Antimycobacterial activity of claimed preparations in tests In vitro (M. bovis): 0.4 µg/mL
COc1cc(C=NNC(=O)c2ccccc2)ccc1OCCOc1ccc(C=NNC(=O)c2ccccc2)cc1OC [1,2-Bis(2-methoxy-4-benzoyl hydrazonomethylphenoxy)-ethane] | – | – | – | >50 | >50 | >50 | –
O=C(NN=Cc1c(OCCOc2ccc3ccccc3c2C=NNC(=O)c2ccccc2)ccc2ccccc12)c1ccccc1 [1,2-Bis[2(benzoyl hydrazonomethylnaphthoxy-2)]-ethane] | – | – | – | >50 | >50 | >50 | –
O=C(NN=Cc1ccccc1OCCOCCOc1ccccc1C=NNC(=O)c1ccccc1)c1ccccc1 [1,5-Bis(2-benzoyl hydrazonomethylphenoxy)-3-oxapentane] | – | – | – | – | – | – | LD50 [1]: > 1000 mg/kg
O=C(NN=Cc1ccccc1OCCOCCOc1ccccc1C=NNC(=O)c1ccncc1)c1ccncc1 [1,5-Bis(2-isonicotinoyl hydrazonomethylphenoxy)-3-oxapentane] | 25.0 | 0.01 | 12.5 | – | – | – | Inhibiting level [3]: 0.58 µg/mL; Antimycobacterial activity of claimed preparations in tests In vitro (M. smegmatis): 12.5 µg/mL; Antimycobacterial activity of claimed preparations in tests In vitro (M. bovis): 0.01 µg/mL; Inhibiting level (P. vulgaris): >500 µg/mL; Inhibiting level (Candida Albicans): >500 µg/mL; Inhibiting level (E. coli; Table 6): >500 µg/mL; Inhibiting level (S. aureus): >500 µg/mL
O=Cc1ccccc1OCCOc1ccccc1C=O [1,8-Bis(2-formylphenoxy)-ethane] | – | – | – | >200 | >200 | >200 | –
O=C(NN=Cc1ccccc1OCCOCCOCCOc1ccccc1C=NNC(=O)c1ccncc1)c1ccncc1 [1,8-bis(2-isonicotinoyl hydrazonomethylphenoxy)-3,6-dioxaoctane] | 25.0 | 0.05 | 12.5 | – | – | – | Antimycobacterial activity of claimed preparations in tests In vitro (M. smegmatis): 12.5 µg/mL; Average change in weight of pigs during test (strain H37Rv): 148.80 ± 29.40 g; Weight of lungs (strain H37Rv): 4.90 ± 0.90 g; Weight of spleen (strain H37Rv): 8.98 ± 0.15 g; LD50 [1]: > 2000 mg/kg; Inhibiting level (P. vulgaris): >500 µg/mL; Inhibiting level (Candida Albicans): >500 µg/mL; Inhibiting level (E. coli; Table 6): >500 µg/mL; Inhibiting level (S. aureus): >500 µg/mL
O=C(NN=Cc1ccccc1OCCCCOCCCCOc1ccccc1C=NNC(=O)c1cccnc1)c1cccnc1 [1,9-Bis(2-nicotinoyl hydrazonomethylphenoxy)-5-oxanonon] | – | – | – | >100 | >100 | >100 | –
O=C(NN=Cc1ccccc1OCCOCCOCCOCCOc1ccccc1C=NNC(=O)c1ccncc1)c1ccncc1 [1.11-Bis(2-isonicotinoyl hydrazonomethylphenoxy)-3,6,9-trioxaundecane] | – | – | – | >50 | >50 | >50 | –
C=CCSc1nc2ccc(NC(=O)c3ccccc3Cl)cc2s1 [Compound formula (II), 2-(allylthio)-6-(2-chlorobenzoylamino)benzothiazole, reference compound] | 25.0 | 10.0 | 10.0 | – | – | – | –
NNC(=O)c1ccncc1 [Isoniazid, hydrazide of isonicotinic acid, reference compound] | 50.0 | 0.05 | 50.0 | – | – | – | Inhibiting level [3]: 0.29 µg/mL; Antimycobacterial activity of claimed preparations in tests In vitro (M. smegmatis): 50.0 µg/mL; Average change in weight of pigs during test (strain H37Rv): 180.60 ± 18.80 g; Weight of lungs (strain H37Rv): 4.49 ± 0.80 g; Weight of spleen (strain H37Rv): 9.34 ± 0.30 g; tuberculosis changes after the end of the course of treatment (strain H37Rv; after 60 days of treatment): detected as morphological, not as bacteriological; Antimycobacterial activity of claimed preparations in tests In vitro (M. bovis): 0.05 µg/mL; LD50 at 5 days [1]: 363 mg/kg
O=C(NN=Cc1cccc(OCCOCCOCCOc2cccc(C=NNC(=O)c3cccnc3)c2)c1)c1cccnc1.[Ni] [[1,8-Bis(3-nicotinoyl hydrazonomethyl phenoxy)-3,6-dioxaoctanejnickel(II)] | – | – | – | >50 | >50 | >50 | –
